According to US20110071180A1, “SUB-TYPE SELECTIVE AMIDES OF DIAZABICYCLOALKANES” (Targacept, Inc., priority 2008, published 2011):
Like-named read-outs stand apart in the source and are kept apart here.

Legend:
rat α4β2 nAChR subtype = target: T1, rat α4β2 nAChR subtype (Rattus norvegicus, UniProt P09483+P12390); assay: Radioligand binding, [3H]nicotine, rat cortex membranes; details: [3H]nicotine 5 nM
T1 construct: The cerebral cortex was removed and placed in 20 volumes (weight:volume) of ice-cold preparative buffer; from tissue; host or cells: rat cerebral cortex membranes (female Sprague-Dawley)
Method: Preparation of Membranes from Rat Cortex: Rats (Female, Sprague-Dawley), weighing 150-250 g, were maintained on a 12 h light/dark cycle and were allowed free access to water and food supplied by PMI Nutrition International, Inc. Animals were anesthetized with 70% CO2, and then decapitated. Brains were removed and placed on an ice-cold platform. The cerebral cortex was removed and placed in 20 volumes (weight:volume) of ice-cold preparative buffer (137 mM NaCl, 10.7 mM KCl, 5.8 mM KH2PO4, 8 mM Na2HPO4, 20 mM HEPES (free acid), 5 mM iodoacetamide, 1.6 mM EDTA, pH 7.4); PMSF, dissolved in methanol to a final concentration of 100 μM, was added and the suspension was homogenized by Polytron. The homogenate was centrifuged at 18,000×g for 20 min at 4° C. and the resulting pellet was re-suspended in 20 volumes of ice-cold water. After 60 min incubation on ice, a new pellet was collected by centrifugation at 18,000×g for 20 min at 4° C. The final pellet was re-suspended in 10 volumes of buffer and stored at −20° C.
(§1) On the day of the assay, the frozen membranes were thawed and spun at 48,000×g for 20 min. The supernatant was decanted and discarded. The pellet was resuspended in Dulbecco's phosphate buffered saline (PBS, Life Technologies) pH 7.4 and homogenized with the Polytron for 6 seconds. Protein concentrations were determined using a Pierce BCA Protein Assay Kit, with bovine serum albumin as the standard (Pierce Chemical Company, Rockford, Ill.).
(§2) Membrane preparations (approximately 50 μg for human and 200-300 μg protein for rat α4β2) were incubated in PBS (50 μL and 100 μL respectively) in the presence of competitor compound (0.01 nM to 100 μM) and 5 nM [^3H]nicotine for 2-3 hours on ice. Incubation was terminated by rapid filtration on a multi-manifold tissue harvester (Brandel, Gaithersburg, Md.) using GF/B filters presoaked in 0.33% polyethyleneimine (w/v) to reduce non-specific binding. Tissue was rinsed 3 times in PBS, pH 7.4. Scintillation fluid was added to filters containing the washed tissue and allowed to equilibrate. Filters were then counted to determine radioactivity bound to the membranes by liquid scintillation counting (2200CA Tri-Carb LSC, Packard Instruments, 50% efficiency or Wallac Trilux 1450 MicroBeta, 40% efficiency, Perkin Elmer).
(§3) Data were expressed as disintegrations per minute (DPMs). Within each assay, each point had 2-3 replicates. The replicates for each point were averaged and plotted against the log of the drug concentration. IC50, which is the concentration of the compound that produces 50% inhibition of binding, was determined by least squares non-linear regression. Ki values were calculated using the Cheng-Prussof equation (1973): […]

human α4β2 nAChR subtype = target: T2, human α4β2 nAChR subtype (Homo sapiens, UniProt P17787+P43681); assay: Radioligand binding, [3H]nicotine, membranes from SH-EP1/human α4β2 clonal cells; details: [3H]nicotine 5 nM, SH-EP1/human α4β2 cell membranes
T2 construct: expressed in transfected cells; host or cells: SH-EP1 clonal cells expressing human α4β2
Method: Preparation of membranes from SH-EP1/human α4β2 clonal cells: Cell pellets from 40 150 mm culture dishes were pooled, and homogenized by Polytron (Kinematica GmbH, Switzerland) in 20 milliliters of ice-cold preparative buffer. The homogenate was centrifuged at 48,000 g for 20 minutes at 4° C. The resulting pellet was re-suspended in 20 mL of ice-cold preparative buffer and stored at −20° C.
as §1, §2, §3

α7 nAChR subtype = target: T3, α7 nAChR subtype (Rattus norvegicus, UniProt Q05941); assay: Radioligand binding, [3H]MLA, rat hippocampus membranes; details: for inhibition at 5 µM: read-out: α7 high through-put screening (HTS) result
T3 construct: The hippocampus was removed and placed in 10 volumes (weight:volume) of ice-cold preparative buffer; from tissue; host or cells: rat hippocampus membranes (female Sprague-Dawley)
Method: Rats (female, Sprague-Dawley), weighing 150-250 g, were maintained on a 12 h light/dark cycle and were allowed free access to water and food supplied by PMI Nutrition International, Inc. Animals were anesthetized with 70% CO2, then decapitated. Brains were removed and placed on an ice-cold platform. The hippocampus was removed and placed in 10 volumes (weight:volume) of ice-cold preparative buffer (137 mM NaCl, 10.7 mM KCl, 5.8 mM KH2PO4, 8 mM Na2HPO4, 20 mM HEPES (free acid), 5 mM iodoacetamide, 1.6 mM EDTA, pH 7.4); PMSF, dissolved in methanol to a final concentration of 100 μM, was added and the tissue suspension was homogenized by Polytron. The homogenate was centrifuged at 18,000×g for 20 min at 4° C. and the resulting pellet was re-suspended in 10 volumes of ice-cold water. After 60 min incubation on ice, a new pellet was collected by centrifugation at 18,000×g for 20 min at 4° C. The final pellet was re-suspended in 10 volumes of buffer and stored at −20° C. On the day of the assay, tissue was thawed, centrifuged at 18,000×g for 20 min, and then re-suspended in ice-cold PBS (Dulbecco's Phosphate Buffered Saline, 138 mM NaCl, 2.67 mM KCl, 1.47 mM KH2PO4, 8.1 mM Na2HPO4, 0.9 mM CaCl2, 0.5 mM MgCl2, Invitrogen/Gibco, pH 7.4) to a final concentration of approximately 2 mg protein/mL. Protein was determined by the method of Lowry et al., J. Biol. Chem. 193: 265 (1951), using bovine serum albumin as the standard.
The binding of [^3H]MLA was measured using a modification of the methods of Davies et al., Neuropharmacol. 38: 679 (1999). [^3H]MLA (Specific Activity=25-35 Ci/mmol) was obtained from Tocris. The binding of [^3H]MLA was determined using a 2 h incubation at 21° C. Incubations were conducted in 48-well micro-titre plates and contained about 200 μg of protein per well in a final incubation volume of 300 μL. The incubation buffer was PBS and the final concentration of [^3H]MLA was 5 nM. The binding reaction was terminated by filtration of the protein containing bound ligand onto glass fiber filters (GF/B, Brandel) using a Brandel Tissue Harvester at room temperature. Filters were soaked in de-ionized water containing 0.33% polyethyleneimine to reduce non-specific binding. Each filter was washed with PBS (3×1 mL) at room temperature. Non-specific binding was determined by inclusion of 50 μM non-radioactive MLA in selected wells.
The inhibition of [^3H]MLA binding by test compounds was determined by including seven different concentrations of the test compound in selected wells. Each concentration was replicated in triplicate. IC50 values were estimated as the concentration of compound that inhibited 50 percent of specific [^3H]MLA binding. Inhibition constants (Ki values), reported in nM, were calculated from the IC50 values using the method of Cheng et al., Biochem. Pharmacol. 22: 3099-3108 (1973).

[1] = [3H]MLA 5 nM, rat hippocampus membranes, read-out: α7 Ki

T2 sequence (P43681 29-627 limits assumed): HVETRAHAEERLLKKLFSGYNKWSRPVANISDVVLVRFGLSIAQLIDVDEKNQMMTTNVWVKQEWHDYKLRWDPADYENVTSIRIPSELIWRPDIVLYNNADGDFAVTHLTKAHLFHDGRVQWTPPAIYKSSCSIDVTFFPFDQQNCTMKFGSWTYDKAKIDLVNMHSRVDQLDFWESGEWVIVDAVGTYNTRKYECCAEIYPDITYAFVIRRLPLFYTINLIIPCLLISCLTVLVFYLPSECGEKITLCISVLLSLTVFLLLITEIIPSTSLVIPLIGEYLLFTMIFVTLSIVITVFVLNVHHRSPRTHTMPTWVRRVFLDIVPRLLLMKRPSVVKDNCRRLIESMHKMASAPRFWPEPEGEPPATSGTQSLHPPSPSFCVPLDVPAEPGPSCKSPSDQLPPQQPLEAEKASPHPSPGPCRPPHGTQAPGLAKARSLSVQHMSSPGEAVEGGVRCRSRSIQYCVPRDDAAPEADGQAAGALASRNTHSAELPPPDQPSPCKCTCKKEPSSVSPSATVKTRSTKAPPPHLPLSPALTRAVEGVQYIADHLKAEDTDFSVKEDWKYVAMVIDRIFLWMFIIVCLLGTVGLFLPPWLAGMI
T2 sequence (P17787 26-502): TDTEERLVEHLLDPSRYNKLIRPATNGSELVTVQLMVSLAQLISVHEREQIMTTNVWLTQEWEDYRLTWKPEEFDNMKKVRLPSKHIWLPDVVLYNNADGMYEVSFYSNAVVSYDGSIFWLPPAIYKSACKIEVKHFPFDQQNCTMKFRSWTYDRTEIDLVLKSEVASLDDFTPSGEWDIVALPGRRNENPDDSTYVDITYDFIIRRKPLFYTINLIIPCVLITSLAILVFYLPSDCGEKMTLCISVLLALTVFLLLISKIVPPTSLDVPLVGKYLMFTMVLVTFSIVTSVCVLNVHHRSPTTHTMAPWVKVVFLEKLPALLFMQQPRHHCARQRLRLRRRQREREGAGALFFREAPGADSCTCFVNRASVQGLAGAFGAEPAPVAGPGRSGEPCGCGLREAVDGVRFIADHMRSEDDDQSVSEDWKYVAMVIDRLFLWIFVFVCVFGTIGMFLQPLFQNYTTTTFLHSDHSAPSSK
T3 sequence (Q05941 23-502): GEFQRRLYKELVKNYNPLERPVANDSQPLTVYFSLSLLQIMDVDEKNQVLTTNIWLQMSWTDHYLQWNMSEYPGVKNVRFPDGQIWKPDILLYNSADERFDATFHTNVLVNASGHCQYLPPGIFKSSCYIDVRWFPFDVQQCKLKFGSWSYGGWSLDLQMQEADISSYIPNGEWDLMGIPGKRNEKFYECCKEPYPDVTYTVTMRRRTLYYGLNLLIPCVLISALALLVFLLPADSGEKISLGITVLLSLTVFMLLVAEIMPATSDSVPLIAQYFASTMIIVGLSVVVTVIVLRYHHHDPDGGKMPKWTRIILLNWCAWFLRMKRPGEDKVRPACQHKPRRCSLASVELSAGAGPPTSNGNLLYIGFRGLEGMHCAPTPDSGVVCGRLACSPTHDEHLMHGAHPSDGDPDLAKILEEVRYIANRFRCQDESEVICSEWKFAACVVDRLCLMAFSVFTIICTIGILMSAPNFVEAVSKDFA
T1 sequence (P09483 31-630): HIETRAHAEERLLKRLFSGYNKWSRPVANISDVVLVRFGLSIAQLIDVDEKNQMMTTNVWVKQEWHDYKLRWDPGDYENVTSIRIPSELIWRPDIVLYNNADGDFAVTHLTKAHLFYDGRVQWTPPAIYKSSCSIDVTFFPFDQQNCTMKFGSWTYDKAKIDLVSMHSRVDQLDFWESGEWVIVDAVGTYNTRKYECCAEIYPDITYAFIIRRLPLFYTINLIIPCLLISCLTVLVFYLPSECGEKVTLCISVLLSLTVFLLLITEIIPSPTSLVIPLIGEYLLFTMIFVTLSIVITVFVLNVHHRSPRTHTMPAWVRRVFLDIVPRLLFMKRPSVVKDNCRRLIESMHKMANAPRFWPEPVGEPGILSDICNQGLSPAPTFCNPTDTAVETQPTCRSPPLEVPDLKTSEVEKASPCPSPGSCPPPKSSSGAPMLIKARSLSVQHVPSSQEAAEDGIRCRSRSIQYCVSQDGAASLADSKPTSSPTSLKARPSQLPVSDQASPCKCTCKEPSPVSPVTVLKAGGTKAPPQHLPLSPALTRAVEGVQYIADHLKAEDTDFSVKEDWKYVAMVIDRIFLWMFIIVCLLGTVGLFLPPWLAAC
T1 sequence (P12390 25-500): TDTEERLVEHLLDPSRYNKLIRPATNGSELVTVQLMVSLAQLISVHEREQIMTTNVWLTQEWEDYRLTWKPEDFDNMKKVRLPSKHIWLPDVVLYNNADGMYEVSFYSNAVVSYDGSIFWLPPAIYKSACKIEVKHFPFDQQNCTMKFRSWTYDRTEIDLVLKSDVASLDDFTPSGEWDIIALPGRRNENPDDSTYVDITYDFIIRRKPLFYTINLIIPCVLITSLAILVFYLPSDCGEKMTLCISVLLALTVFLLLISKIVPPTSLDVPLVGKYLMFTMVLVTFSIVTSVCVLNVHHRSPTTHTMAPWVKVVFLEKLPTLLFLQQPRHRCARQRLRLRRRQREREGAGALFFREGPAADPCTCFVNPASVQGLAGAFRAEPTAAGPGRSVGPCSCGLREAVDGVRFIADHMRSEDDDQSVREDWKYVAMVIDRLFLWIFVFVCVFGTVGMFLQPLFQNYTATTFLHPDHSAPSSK

Compound	Ki (rat α4β2 nAChR subtype) [nM]	Ki (human α4β2 nAChR subtype) [nM]	inhibition at 5 µM (α7 nAChR subtype) [%]	Ki (α7 nAChR subtype; α7 Ki) [nM]	Ki (α7 nAChR subtype; [1]) [nM]
O=C(CC1CC1)N1CC2CNCC2C1 (stereo not drawn) [Example 10-34]	62.7	105	< 50	–	–
CS(=O)(=O)CC(=O)N1CC2CNCC2C1 (stereo not drawn) [Example 10-35]	238	345	< 50	–	–
O=C([C@H]1C[C@@H]1F)N1CC2CNCC2C1 (stereo partly drawn) [Example 10-36]	34.3	17.2	–	25300	–
O=C([C@@H]1C[C@H]1F)N1CC2CNCC2C1 (stereo partly drawn) [Example 10-37]	12.2	4.9	< 50	–	–
O=C([C@H]1C[C@H]1F)N1CC2CNCC2C1 (stereo partly drawn) [Example 10-38]	9.7	30	< 50	–	–
O=C([C@@H]1C[C@@H]1F)N1CC2CNCC2C1 (stereo partly drawn) [Example 10-39]	6.6	3.8	< 50	–	–
CC(F)(F)C(=O)N1CC2CNCC2C1 (stereo not drawn) [Example 10-40]	8.6	9.8	< 50	–	–
CC(C)(F)C(=O)N1CC2CNCC2C1 (stereo not drawn) [Example 10-41]	12	26.9	< 50	–	–
O=C(C1CC2CCC1C2)N1CC2CNCC2C1 (stereo not drawn) [Example 10-42]	139	64.6	< 50	–	–
O=C(C1CC2C=CC1C2)N1CC2CNCC2C1 (stereo not drawn) [Example 10-43]	34	15.8	< 50	–	–
O=C([C@@H]1CC2C=CC1C2)N1CC2CNCC2C1 (stereo partly drawn) [Example 10-44]	9.3	3.4	< 50	–	–
O=C(C1C2CCCCC21)N1CC2CNCC2C1 (stereo not drawn) [Example 10-45]	26	8.6	–	–	508
O=C(C1C[C@H]2C=C[C@@H]1CC2)N1CC2CNCC2C1 (stereo partly drawn) [Example 10-46]	236	44.5	< 50	–	–
O=C1CCCC2=C1CC(C(=O)N1CC3CNCC3C1)CC2 (stereo not drawn) [Example 10-47]	369	419	< 50	–	–
O=C(C1CC=CCC1c1cccnc1)N1CC2CNCC2C1 (stereo not drawn) [Example 10-48]	999	345	< 50	–	–
O=C(C1CC=CCC1)N1CC2CNCC2C1 (stereo not drawn) [Example 10-49]	236	133	< 50	–	–
C[C@@H]1C(C(=O)N2CC3CNCC3C2)[C@@H]1C (stereo partly drawn) [Example 10-51]	17.6	44.6	–	–	4790
CC1C(C)C1C(=O)N1CC2CNCC2C1 (stereo not drawn) [Example 10-52]	133	12.2	< 50	–	–
COC1CC(C(=O)N2CC3CNCC3C2)C1 (stereo not drawn) [Example 10-53]	83.7	147	< 50	–	–
O=C(C1CC(F)(F)C1)N1CC2CNCC2C1 (stereo not drawn) [Example 10-54]	20.3	5.7	< 50	–	–
CC(=O)N1CC2CNCC(C2)C1 [Example 10-55]	18.7	20.2	–	–	3280
O=C(C1CC1)N1CC2CNCC(C2)C1 [Example 10-56]	2.8	0.4	–	–	95.7
CC(C)(C)C(=O)N1CC2CNCC(C2)C1 [Example 10-57]	112	126	< 50	–	–
O=C(C1=CCCC1)N1CC2CNCC(C2)C1 [Example 10-58]	177	468	< 50	–	–
O=C(C(F)F)N1CC2CNCC(C2)C1 [Example 10-59]	1.7	24.6	–	–	295
CC(C)=CC(=O)N1CC2CNCC(C2)C1 [Example 10-60]	25.9	13.8	< 50	–	–
COCC(=O)N1CC2CNCC(C2)C1 [Example 10-61]	50	38.8	–	–	1470
COCCC(=O)N1CC2CNCC(C2)C1 [Example 10-62]	175	127	< 50	–	–
CCC(=O)N1CC2CNCC(C2)C1 [Example 10-63]	12.1	10.4	–	–	795
